Measurements taken from US9469650B2, “Melampomagnolide B derivatives” (BOARD OF TRUSTEES OF THE UNIVERSITY OF ARKANSAS, priority 2013, dated 2016).

Columns and labels:
CCRF-CEM = assay: panel of 60 human tumor cell lines, growth inhibition (Leukemia)
MOLT-4 = assay: as above; settings: MOLT-4
SR = assay: as above
MDA-MB-435 = assay: panel of 60 human tumor cell lines, growth inhibition (Melanoma); settings: MDA-MB-435
SK-MEL-28 = assay: as above; settings: SK-MEL-28
SK-MEL-5 = assay: as above; settings: 8K-MEL-5
SF-539 = assay: panel of 60 human tumor cell lines, growth inhibition (CNS Cancer); settings: SF-539
COLO 205 = assay: panel of 60 human tumor cell lines, growth inhibition (Colon Cancer); settings: COLO 205
HT29 = assay: as above; settings: HT29
KM12 = assay: as above; settings: KM12
ACHN = assay: panel of 60 human tumor cell lines, growth inhibition (Renal Cancer)
TK-10 = assay: as above; settings: TK-10
HS 578T = assay: panel of 60 human tumor cell lines, growth inhibition (Breast Cancer); settings: HS 578T
T-47D = assay: as above; settings: T-47D
MDA-MB-468 = assay: as above; settings: MDA-MB-468
OVCAR-8 = assay: panel of 60 human tumor cell lines, growth inhibition (Ovarian Cancer); settings: OVCAR-8
NCI/ADR-RES = assay: as above
NCI-H23 = assay: panel of 60 human tumor cell lines, growth inhibition (Non-Small Cell Lung Cancer); settings: NCI-H23
NCI-H460 = assay: as above; settings: NCI-H460

C=C1C(=O)O[C@H]2[C@H]1CC/C(COC(=O)CCC(=O)N1CCC(C)CC1)=C\CC[C@@]1(C)O[C@@H]21 [JVM 2-70]
Percent Growth (CCRF-CEM; Log10 Concentration −4.0): −56%
Percent Growth (CCRF-CEM; Log10 Concentration −5.0): −32%
Percent Growth (CCRF-CEM; Log10 Concentration −6.0): 64%
Percent Growth (CCRF-CEM; Log10 Concentration −7.0): 92%
Percent Growth (CCRF-CEM; Log10 Concentration −8.0): 98%
GI50 (CCRF-CEM; NCI five dose): 1.4 µM
TGI (CCRF-CEM; NCI five dose): 4.68E−6
Percent Growth (MOLT-4; Log10 Concentration −4.0): −49%
Percent Growth (MOLT-4; Log10 Concentration −5.0): −9%
Percent Growth (MOLT-4; Log10 Concentration −6.0): 115%
Percent Growth (MOLT-4; Log10 Concentration −7.0): 119%
Percent Growth (MOLT-4; Log10 Concentration −8.0): 110%
GI50 (MOLT-4; NCI five dose): 3.33 µM
TGI (MOLT-4; NCI five dose): 8.45E−6
Percent Growth (SR; Log10 Concentration −4.0): −38%
Percent Growth (SR; Log10 Concentration −5.0): 6%
Percent Growth (SR; Log10 Concentration −6.0): 84%
Percent Growth (SR; Log10 Concentration −7.0): 102%
Percent Growth (SR; Log10 Concentration −8.0): 101%
GI50 (SR; NCI five dose): 2.72 µM
TGI (SR; NCI five dose): 1.39E−5
Percent Growth (MDA-MB-435; Log10 Concentration −4.0): −72%
Percent Growth (MDA-MB-435; Log10 Concentration −5.0): 32%
Percent Growth (MDA-MB-435; Log10 Concentration −6.0): 90%
Percent Growth (MDA-MB-435; Log10 Concentration −7.0): 95%
Percent Growth (MDA-MB-435; Log10 Concentration −8.0): 89%
GI50 (MDA-MB-435; NCI five dose): 4.84 µM
TGI (MDA-MB-435; NCI five dose): 2.03E−5
Percent Growth (SK-MEL-28; Log10 Concentration −4.0): −79%
Percent Growth (SK-MEL-28; Log10 Concentration −5.0): 4%
Percent Growth (SK-MEL-28; Log10 Concentration −6.0): 95%
Percent Growth (SK-MEL-28; Log10 Concentration −7.0): 100%
Percent Growth (SK-MEL-28; Log10 Concentration −8.0): 89%
GI50 (SK-MEL-28; NCI five dose): 3.1 µM
TGI (SK-MEL-28; NCI five dose): 1.11E−5
Percent Growth (SK-MEL-5; Log10 Concentration −4.0): −93%
Percent Growth (SK-MEL-5; Log10 Concentration −5.0): 42%
Percent Growth (SK-MEL-5; Log10 Concentration −6.0): 96%
Percent Growth (SK-MEL-5; Log10 Concentration −7.0): 99%
Percent Growth (SK-MEL-5; Log10 Concentration −8.0): 98%
GI50 (SK-MEL-5; NCI five dose): 7.17 µM
TGI (SK-MEL-5; NCI five dose): 2.05E−5
Percent Growth (SF-539; Log10 Concentration −4.0): −90%
Percent Growth (SF-539; Log10 Concentration −5.0): −20%
Percent Growth (SF-539; Log10 Concentration −6.0): 92%
Percent Growth (SF-539; Log10 Concentration −7.0): 97%
Percent Growth (SF-539; Log10 Concentration −8.0): 93%
GI50 (SF-539; NCI five dose): 2.35 µM
TGI (SF-539; NCI five dose): 6.58E−6
CC50 (SF-539; read-out: LC50, NCI five dose): 26.5 µM
Percent Growth (COLO 205; Log10 Concentration −4.0): −88%
Percent Growth (COLO 205; Log10 Concentration −5.0): −11%
Percent Growth (COLO 205; Log10 Concentration −6.0): 104%
Percent Growth (COLO 205; Log10 Concentration −7.0): 107%
Percent Growth (COLO 205; Log10 Concentration −8.0): 94%
GI50 (COLO 205; NCI five dose): 2.94 µM
TGI (COLO 205; NCI five dose): 8.03E−6
Percent Growth (HT29; Log10 Concentration −4.0): −87%
Percent Growth (HT29; Log10 Concentration −5.0): 19%
Percent Growth (HT29; Log10 Concentration −6.0): 103%
Percent Growth (HT29; Log10 Concentration −7.0): 106%
Percent Growth (HT29; Log10 Concentration −8.0): 99%
GI50 (HT29; NCI five dose): 4.28 µM
TGI (HT29; NCI five dose): 1.51E−5
Percent Growth (KM12; Log10 Concentration −4.0): −87%
Percent Growth (KM12; Log10 Concentration −5.0): 62%
Percent Growth (KM12; Log10 Concentration −6.0): 98%
Percent Growth (KM12; Log10 Concentration −7.0): 102%
Percent Growth (KM12; Log10 Concentration −8.0): 102%
GI50 (KM12; NCI five dose): 12.1 µM
TGI (KM12; NCI five dose): 2.61E−5
Percent Growth (ACHN; Log10 Concentration −4.0): −79%
Percent Growth (ACHN; Log10 Concentration −5.0): 2%
Percent Growth (ACHN; Log10 Concentration −6.0): 85%
Percent Growth (ACHN; Log10 Concentration −7.0): 102%
Percent Growth (ACHN; Log10 Concentration −8.0): 98%
GI50 (ACHN; NCI five dose): 2.64 µM
TGI (ACHN; NCI five dose): 1.05E−5
Percent Growth (TK-10; Log10 Concentration −4.0): −97%
Percent Growth (TK-10; Log10 Concentration −5.0): 9%
Percent Growth (TK-10; Log10 Concentration −6.0): 109%
Percent Growth (TK-10; Log10 Concentration −7.0): 106%
Percent Growth (TK-10; Log10 Concentration −8.0): 97%
GI50 (TK-10; NCI five dose): 3.9 µM
TGI (TK-10; NCI five dose): 1.23E−5
Percent Growth (HS 578T; Log10 Concentration −4.0): 6%
Percent Growth (HS 578T; Log10 Concentration −5.0): 70%
Percent Growth (HS 578T; Log10 Concentration −6.0): 86%
Percent Growth (HS 578T; Log10 Concentration −7.0): 92%
Percent Growth (HS 578T; Log10 Concentration −8.0): 92%
GI50 (HS 578T; NCI five dose): 20.4 µM
TGI (HS 578T; NCI five dose): >1.00E−4
Percent Growth (T-47D; Log10 Concentration −4.0): −48%
Percent Growth (T-47D; Log10 Concentration −5.0): 34%
Percent Growth (T-47D; Log10 Concentration −6.0): 94%
Percent Growth (T-47D; Log10 Concentration −7.0): 94%
Percent Growth (T-47D; Log10 Concentration −8.0): 86%
GI50 (T-47D; NCI five dose): 5.45 µM
TGI (T-47D; NCI five dose): 2.61E−5
Percent Growth (MDA-MB-468; Log10 Concentration −4.0): −69%
Percent Growth (MDA-MB-468; Log10 Concentration −5.0): −33%
Percent Growth (MDA-MB-468; Log10 Concentration −6.0): 52%
Percent Growth (MDA-MB-468; Log10 Concentration −7.0): 92%
Percent Growth (MDA-MB-468; Log10 Concentration −8.0): 88%
GI50 (MDA-MB-468; NCI five dose): 1.06 µM
TGI (MDA-MB-468; NCI five dose): 4.06E−6
CC50 (MDA-MB-468; read-out: LC50, NCI five dose): 29.8 µM
Percent Growth (OVCAR-8; Log10 Concentration −4.0): −88%
Percent Growth (OVCAR-8; Log10 Concentration −5.0): 15%
Percent Growth (OVCAR-8; Log10 Concentration −6.0): 89%
Percent Growth (OVCAR-8; Log10 Concentration −7.0): 95%
Percent Growth (OVCAR-8; Log10 Concentration −8.0): 94%
GI50 (OVCAR-8; NCI five dose): 3.37 µM
TGI (OVCAR-8; NCI five dose): 1.39E−5
Percent Growth (NCI/ADR-RES; Log10 Concentration −4.0): −52%
Percent Growth (NCI/ADR-RES; Log10 Concentration −5.0): 64%
Percent Growth (NCI/ADR-RES; Log10 Concentration −6.0): 99%
Percent Growth (NCI/ADR-RES; Log10 Concentration −7.0): 104%
Percent Growth (NCI/ADR-RES; Log10 Concentration −8.0): 95%
GI50 (NCI/ADR-RES; NCI five dose): 13.1 µM
TGI (NCI/ADR-RES; NCI five dose): 3.55E−5
Percent Growth (NCI-H23; Log10 Concentration −4.0): −70%
Percent Growth (NCI-H23; Log10 Concentration −5.0): 33%
Percent Growth (NCI-H23; Log10 Concentration −6.0): 94%
Percent Growth (NCI-H23; Log10 Concentration −7.0): 101%
Percent Growth (NCI-H23; Log10 Concentration −8.0): 95%
GI50 (NCI-H23; NCI five dose): 5.24 µM
TGI (NCI-H23; NCI five dose): 2.09E−5
Percent Growth (NCI-H460; Log10 Concentration −4.0): −57%
Percent Growth (NCI-H460; Log10 Concentration −5.0): 77%
Percent Growth (NCI-H460; Log10 Concentration −6.0): 99%
Percent Growth (NCI-H460; Log10 Concentration −7.0): 101%
Percent Growth (NCI-H460; Log10 Concentration −8.0): 100%
GI50 (NCI-H460; NCI five dose): 16 µM
TGI (NCI-H460; NCI five dose): 3.76E−5
